Measured values from patent US11737991B2, “Eutectic formulations of cyclobenzaprine hydrochloride and amitriptyline hydrochloride” (TONIX PHARMA HOLDINGS LIMITED, priority 2013, dated 2023).
Entries after “also recorded” stand apart in the source; their conditions may differ. Counter-ions that a name gives are not always drawn. Each block holds one compound with its values, some of them ahead of it.

What was measured:
Assay type in all cases: physicochemical
[1] = DSC compatibility of excipients with Amitriptyline HCl (Example 4); conditions: Amitriptyline HCl:excipient 1:1, milled in agate mortar
Procedure: Thermal analytical techniques were used to assess the compatibility of the drug product Amitriptyline HCl. The compatibility assessment was carried out between the API and the excipients in a 1:1 ratio. On the basis of thermal events recorded for each component and for the mixtures, the analyses were carried out by investigating the peaks recorded by DSC in mixtures between API and the excipients. Differences in thermal profiles between the single compound and the related mixtures were obtained after milling the products in an agate mortar.

[2] = DSC compatibility of excipients with Cyclobenzaprine HCl (Example 1); conditions: for Excipient reactions with API, Mixture 1:1: 1:1 API:excipient, ground in agate mortar
Procedure: Thermal analytical techniques were used to assess the compatibility of a drug product (tablet) containing Cyclobenzaprine HCl (API). The compatibility assessment was carried out between the API and a number of possible excipients in a 1:1 ratio. Based on the thermal events recorded for each component and for the mixtures, the analyses were carried out by investigating the peaks recorded by differential scanning calorimetry (DSC) in mixture between API and the excipients. Differences in thermal profiles between the single compound and the related mixture obtained after milling the products in an agate mortar were evaluated. Stability and compatibility also were also assessed on the final drug product after stress conditions at 40° C. and 50° C. for one month.
A “formulation ratio” mixture was made with the following composition: 2.40 mg Cyclobenzaprine HCl, 31.55 mg Mannitol and Maize starch, 2.00 Crospovidone, 0.50 mg colloidal silica, 0.050 mg Sodium Stearyl Fumarate, and 1.05 Potassium hydrogen phosphate.
Aliquots of API and each excipient were weighed in a ratio of 1:1 (unless specified otherwise) and ground in an agate mortar. The homogeneous mixtures then were analyzed.
The DSC heating curves were obtained with a TA 821 DSC Mettler instrument under the following conditions:
(§1) Ambient: Nitrogen 30 mL/min
(§2) Sample holder: normal open aluminum pan
(§3) Temperature range: from 25° C. to 250° C.
(§4) Instrument calibration: Indium sample purity 99.999%

[3] = DSC, FT-IR/ATR and XRPD compatibility of excipients with Cyclobenzaprine HCl, mixed (A) and milled (B) 1:1 mixtures (Example 2); conditions: for Type of interaction between excipient and API (summary): 1:1 mixtures, mixed and milled
Procedure: As described above, thermal analytical techniques were further used to assess the compatibility of a drug product (tablet) containing Cyclobenzaprine HCl (API). The compatibility assessment was carried out between the API and additional excipients in a 1:1 ratio. The 1:1 APT-excipient mixtures were formed in two different ways: first, by mixing only, and second, by strong milling in an agate mortar. The thermal behavior recorded in the two different mixtures were compared with those of the single components. On the basis of thermal events recorded for each component and for the mixtures, the analyses were carried out by investigating the meanings of the peaks recorded by differential scanning calorimetry (DSC) in mixtures between the API and the excipients. Furthermore, in order to define the nature of the interaction, the Fourier Transform Infra Red Spectroscopy with Total Attenuated Reflectance (FT-IR/ATR) and X-ray powder diffraction (XRPD) of some samples (API, excipient, and mixed and milled mixtures) was carried out and compared.
Aliquots of API and each excipient were weighed in a ratio of 1:1 and ground in an agate mortar. Then, the homogeneous mixtures were analyzed. These sample mixtures were labeled “B”, while the mechanical-only mixtures were labeled “A.”
The DSC heating curves were obtained by TA 821 DSC Mettler instrument under the following conditions:
as §1, §2, §3, §4
The FT-IR spectra were collected with a Perkin Elmer spectrum Two instrument with air as background and 4 cm-1 resolution.
X-ray powder diffraction (XRPD) tests were performed with the ULTIMA IV instrument (Rigaku), laying the sample on a static sample holder. The X-ray focusing slit has a variable width, interlocked with the q value. The X-ray tube has a Copper target, with a current intensity of 40 mA and a voltage of 40 kV. Radiation was generated by the Cockcroft-Walton method, and was constituted by Kα1 (1.540562 Å) and Kα2 (1.544398 Å). The analytical conditions were:
Fixed Time; sampling width 0.02 deg, scanning rate 1.3 s/step, 2 q range 3.35 deg and sample holder; amorphous glass equiangular 9200/2G, 0.2 mm deep. The sample was pressed with a glass plate.

[4] = XRPD of binary Cyclobenzaprine HCl-mannitol mixtures (Example 3); conditions: binary mixtures 30-90% API, no thermal treatment
Procedure: In order to confirm the eutectic formation and to characterize its physical properties, several binary mixtures at different ratios of API-excipient were prepared and analyzed by DSC and by X-ray powder diffraction (XRPD). The mixtures were obtained by gently milling in agate mortar of micronized Cyclobenzaprine HCl and mannitol, in order to obtain homogeneous distribution of the particles. For each DSC heating curve, the onset temperature and the enthalpy were evaluated both for the eutectic contribute and for the excess of component. The recorded values were plotted and a phase diagram between the two components was obtained with a characteristic profile of phase diagrams of eutectic mixtures. Mixtures also were investigated by XRPD and compared with the patterns of pure components. […] Aliquots of Cyclobenzaprine HCl API and Mannitol were weighed in the ratios described below and ground in an agate mortar, and the homogeneous mixtures subsequently analyzed. X-ray powder diffraction (XRPD) tests were performed with a ULTIMA IV (Rigaku) instrument, laying the sample on a static sample holder. […] The radiation generated by the Cockcroft-Walton method is constituted by Kα1 (1.540562 Å) and Kα2 (1.544398 Å). The analytical conditions were as follows: Fixed Time: Sampling width, 0.02 deg; Scanning rate, 1.0 s/step […] Sample holder: amorphous glass—equiangular 9200/2G, 0.2 mm deep. […]

[5] = Dissolution test, USP paddle, pyrophosphate buffer pH 4.5; conditions: pH 4.5, free base still present and does not go into solution
Procedure: To test the dissolution properties of the 6 mannitol eutectic, dissolution tests were carried out with a Copley DIS 6000 instrument under the following conditions: Apparatus: USP Paddle RPM: 50 Medium: Pyrophosphate buffer 0.5% pH=4.5±0.05 Additive: Methocel 0.3% Vessel volume: 300 mL Temperature: 37±0.5° C. Sampling time: 1, 2, 5, 10, 20, 30, and 60 min, then each hour until 6 hours. The sampling solutions were diluted 1 to 50 mL and then 1 to 50 mL with medium and submitted to UV analysis with UV ([…]) under the following conditions: λ max: 224 nm Cuvette: […] Blank: medium

[6] = listed as Sodium Stearyl fumarate, fumarate
[7] = listed as Potassium phosphate bibasic

Compound: Sodium Phosphate dodecahydrate
Interactions between API and excipients, Mixture in formulation (1:1 ratio) [1]: physical interaction

Compound: O=C([O-])CC(O)(CC(=O)[O-])C(=O)[O-].[Na+].[Na+].[Na+] [Tri Sodium Citrate anhydrous, Trisodium citrate anhydrous]
Nature of interaction by FT-IR/ATR ([3]; 1:1 mixture, room temperature, no thermal treatment): no chemical acid-base reaction had occurred
Type of interaction between excipient and API (summary) [3]: only physical

Compound: O=P([O-])([O-])O.[K+].[K+] [Potassium phosphate dibasic, dipotassium hydrogen phosphate]
Excipient reactions with API, Mixture 1:1 [2]: Acid - base interaction
Excipient reactions with API, Mixture 1:1 [2, 7]: chemical interaction (acid-base); also recorded: chemical (acid-base) interaction
Excipient reactions with API, Mixture in formulation ratio [2]: Low chemical
Excipient reactions with API, Mixture in formulation ratio ([2]; listed as K2HPO4): small interaction
Excipient reactions with API, Mixture in formulation ratio [2, 7]: chemical (acid-base) interaction

Compound: CN(C)CCC=C1c2ccccc2C=Cc2ccccc21 [Cyclobenzaprine HCl, 3-(5H-dibenzo[a,d]cyclohepten-5-ylidene)-N,N-dimethyl-1-propanamine]
Cyclobenzaprine dissolution [5]: < 100%

Second part, led by results:

Excipient reactions with API, Mixture 1:1 ([2]; fumarate): Physical interaction
Excipient reactions with API, Mixture 1:1 [2, 6]: small physical interaction
Excipient reactions with API, Mixture in formulation ratio ([2]; fumarate): No interaction
Excipient reactions with API, Mixture in formulation ratio [2, 6]: this incompatibility disappears
Compound: CCCCCCCCCCCCCCCCCCOC(=O)/C=C/C(=O)[O-].[Na+] [Sodium stearyl fumarate]

Type of interaction between excipient and API (summary) [3]: formation of a eutectic
Compound: OC[C@@H](O)[C@@H](O)[C@H](O)[C@H](O)CO [Mannitol]
Interaction between API and mannitol by XRPD [4]: no adduct formation, only a physical eutectic formation; also recorded: no adduct interaction occurred

Type of interaction between excipient and API (summary) [3]: physical interaction
Compound: OC[C@@H](O)[C@@H](O)[C@H](O)[C@@H](O)CO [Sorbitol]
